Target: LRRK2 G2019S (Homo sapiens, UniProt Q5S007, G2019S)
Assay: LRRK2 G2019S TR-FRET kinase assay (LRRKtide substrate)
Assay type: biochemical
Conditions: LRRK2 G2019S enzyme 5 nM, 134 μM ATP, 60 minute reaction, 23° C.
Method: Materials: • LRRK2 G2019S enzyme • Substrate (LRRKtide) • ATP • TR-FRET dilution buffer • pLRRKtide antibody • 384-well assay plate • DMSO
Enzyme Reaction Conditions
23° C. reaction temperature
10 μL total reaction volume
Detection Reaction Conditions
1×TR-FRET dilution buffer
2 nM antibody • 23° C. reaction temperature • 10 μL total reaction volume
Compounds are prepared by initially diluting to 1 mM with DMSO. 35 μL of reference compound solution, 35 μL of test compound solution, and 35 μL HPE are successively added to the source plate (384-well assay plate, Labcyte). The plates are centrifuged at 2500 rpm for 1 minute and sealed in foil. POD is used to perform a 3.162 fold serial dilution and 100 nL of reference compound solution, test compound solution, HPE and ZPE are transferred to assay plates. The assay plate is centrifuged at 2500 rpm for 1 minute, and sealed with foil.
To perform the enzyme reaction, 5 μL of LRRKtide substrate and kinase mixture in assay buffer is added to all wells of the assay plate. The plate is centrifuged to concentrate the mixture at the bottom of the wells. The assay plate is incubated at 23° C. for 20 minutes. Following incubation, 5 μL of 2×ATP in assay buffer is added to each well, and plates are centrifuged to concentrate the mixture at the bottom of the wells. The plate is incubated at 23° C. for 60 minutes.
To perform the detection of the reaction, EDTA completely mixed in TR-FRET dilution buffer is added to antibody reagent. 10 μL of detection reagent is added to all wells of each well of the assay plate and the plate is centrifuged to concentrate the mixture at the bottom of the wells. The plate is then incubated at 23° C. for 60 minutes. Plates are read on Perkin Elmer Envision 2104 instrument in TR-FRET mode using a 340 nm excitation filter, 520 nm fluorescence emission filter, and 490 or 495 nm terbium emission filter.

Chain of LRRK2 G2019S (Q5S007 whole entry G2019S): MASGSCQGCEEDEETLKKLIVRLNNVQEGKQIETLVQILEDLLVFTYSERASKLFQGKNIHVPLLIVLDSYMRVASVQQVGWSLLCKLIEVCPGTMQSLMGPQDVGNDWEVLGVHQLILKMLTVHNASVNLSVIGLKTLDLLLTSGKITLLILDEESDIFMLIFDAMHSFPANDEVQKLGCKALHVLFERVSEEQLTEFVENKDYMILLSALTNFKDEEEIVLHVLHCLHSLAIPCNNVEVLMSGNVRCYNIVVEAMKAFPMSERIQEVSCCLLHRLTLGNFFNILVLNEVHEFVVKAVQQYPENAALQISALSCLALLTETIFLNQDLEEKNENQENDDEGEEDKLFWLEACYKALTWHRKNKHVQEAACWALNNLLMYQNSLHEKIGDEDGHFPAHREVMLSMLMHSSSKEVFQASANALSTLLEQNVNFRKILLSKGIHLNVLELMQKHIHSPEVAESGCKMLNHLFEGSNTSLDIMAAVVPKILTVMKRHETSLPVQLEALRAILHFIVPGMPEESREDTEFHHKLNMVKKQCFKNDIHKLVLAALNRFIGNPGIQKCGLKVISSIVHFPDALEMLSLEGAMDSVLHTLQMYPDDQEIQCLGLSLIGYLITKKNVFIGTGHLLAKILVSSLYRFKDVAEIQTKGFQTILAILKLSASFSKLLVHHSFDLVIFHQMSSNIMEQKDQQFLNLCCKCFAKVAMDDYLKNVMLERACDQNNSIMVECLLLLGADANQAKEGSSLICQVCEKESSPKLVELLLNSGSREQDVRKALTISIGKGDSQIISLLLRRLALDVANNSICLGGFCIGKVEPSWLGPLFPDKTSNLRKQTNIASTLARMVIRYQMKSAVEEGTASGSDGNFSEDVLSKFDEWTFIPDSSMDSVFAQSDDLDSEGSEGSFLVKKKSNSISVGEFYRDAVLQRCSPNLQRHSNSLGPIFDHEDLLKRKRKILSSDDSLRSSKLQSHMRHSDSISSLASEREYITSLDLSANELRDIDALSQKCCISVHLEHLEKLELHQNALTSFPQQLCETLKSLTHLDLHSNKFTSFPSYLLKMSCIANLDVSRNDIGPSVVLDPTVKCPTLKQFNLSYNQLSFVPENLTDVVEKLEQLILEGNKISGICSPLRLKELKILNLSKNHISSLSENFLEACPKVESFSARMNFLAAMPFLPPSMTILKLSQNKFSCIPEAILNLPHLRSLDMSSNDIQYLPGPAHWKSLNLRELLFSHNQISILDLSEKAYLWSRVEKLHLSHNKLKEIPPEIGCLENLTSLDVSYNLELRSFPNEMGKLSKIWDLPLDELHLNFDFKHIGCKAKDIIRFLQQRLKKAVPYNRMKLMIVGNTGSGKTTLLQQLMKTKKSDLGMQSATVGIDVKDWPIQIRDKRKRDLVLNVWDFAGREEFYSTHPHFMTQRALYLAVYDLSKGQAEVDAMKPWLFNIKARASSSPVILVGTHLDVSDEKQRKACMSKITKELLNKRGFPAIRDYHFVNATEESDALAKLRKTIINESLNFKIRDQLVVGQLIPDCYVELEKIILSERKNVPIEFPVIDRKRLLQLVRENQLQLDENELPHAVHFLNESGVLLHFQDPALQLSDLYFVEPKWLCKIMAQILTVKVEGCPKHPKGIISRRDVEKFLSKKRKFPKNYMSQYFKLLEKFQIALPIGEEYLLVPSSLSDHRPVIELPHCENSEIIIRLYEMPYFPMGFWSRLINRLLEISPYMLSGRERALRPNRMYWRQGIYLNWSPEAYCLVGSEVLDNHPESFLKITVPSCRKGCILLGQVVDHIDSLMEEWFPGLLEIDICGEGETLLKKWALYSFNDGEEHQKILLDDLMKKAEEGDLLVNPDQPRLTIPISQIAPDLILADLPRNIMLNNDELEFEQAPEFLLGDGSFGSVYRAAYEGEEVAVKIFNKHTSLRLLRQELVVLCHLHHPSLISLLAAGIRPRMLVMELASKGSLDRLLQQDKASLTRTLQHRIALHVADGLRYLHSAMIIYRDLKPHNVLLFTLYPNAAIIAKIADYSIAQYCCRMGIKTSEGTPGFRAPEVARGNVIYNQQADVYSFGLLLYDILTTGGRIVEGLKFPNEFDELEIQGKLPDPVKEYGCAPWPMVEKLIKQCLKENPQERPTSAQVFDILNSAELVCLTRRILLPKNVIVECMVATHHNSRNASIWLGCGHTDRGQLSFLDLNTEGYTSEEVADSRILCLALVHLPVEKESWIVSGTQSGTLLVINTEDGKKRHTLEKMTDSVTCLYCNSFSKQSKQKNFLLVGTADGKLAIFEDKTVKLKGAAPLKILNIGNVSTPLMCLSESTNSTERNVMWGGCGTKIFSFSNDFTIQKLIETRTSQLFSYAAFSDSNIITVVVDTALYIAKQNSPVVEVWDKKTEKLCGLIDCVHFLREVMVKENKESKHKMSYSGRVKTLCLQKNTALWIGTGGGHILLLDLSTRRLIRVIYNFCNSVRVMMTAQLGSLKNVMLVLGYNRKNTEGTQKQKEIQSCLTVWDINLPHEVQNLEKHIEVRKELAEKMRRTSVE

IC50, < 0.03 µM:
CCNc1nc(Nc2cnn(C3C[C@H]3C#N)c2C)ncc1C(F)(F)F (single isomer, unassigned) [Compound 19]
Cc1c(Nc2ncc(C(F)(F)F)c(NC3CC3)n2)cnn1C1C[C@]1(C)C#N (single isomer, unassigned) [Compound 15]
CCNc1nc(Nc2cn(C3C[C@@]3(C)C#N)nc2C)ncc1Br (single isomer, unassigned) [Compound 12]
CCNc1nc(Nc2cn(C3C[C@]3(C)C#N)nc2C)ncc1C(F)(F)F (single isomer, unassigned) [Compound 6]
CNc1nc(Nc2cn(C3C[C@@]3(C)C#N)nc2C)ncc1C(F)(F)F (single isomer, unassigned) [Compound 10]
CNc1nc(Nc2cn(C3C[C@@]3(C)C#N)nc2C2CC2)ncc1C(F)(F)F (single isomer, unassigned) [Compound 2]
Cc1c(Nc2ncc(C(F)(F)F)c(NC3CC3)n2)cnn1C1C[C@@]1(C)C#N (single isomer, unassigned) [Compound 16]
Cc1nn(C2C[C@@]2(C)C#N)cc1Nc1ncc(C(F)(F)F)c(NC2CC2)n1 (single isomer, unassigned) [Compound 9]
Cc1nn(C2C[C@]2(C)C#N)cc1Nc1ncc(C(F)(F)F)c(NC2CC2)n1 (single isomer, unassigned) [Compound 7]
CCNc1nc(Nc2cn(C3C[C@@]3(C)C#N)nc2C)ncc1C(F)(F)F (single isomer, unassigned) [Compound 8]
CCNc1nc(Nc2cn(C3C[C@]3(C)C#N)nc2C)ncc1Br (single isomer, unassigned) [Compound 11]
CNc1nc(Nc2cn(C3C[C@]3(C)C#N)nc2C2CC2)ncc1C(F)(F)F (single isomer, unassigned) [Compound 3]
CCNc1nc(Nc2cn(C3C[C@@]3(C)C#N)nc2C2CC2)ncc1C(F)(F)F (single isomer, unassigned) [Compound 1, 2-(3-cyclopropyl-4-((4-(ethylamino)-5-(trifluoromethyl)pyrimidin-2-yl)amino)-1H-pyrazol-1-yl)-1-methylcyclopropanecarbonitrile]
Cc1nn(C2C[C@@]2(C)C#N)cc1Nc1ncc(C(F)(F)F)c(NC2(C)CC2)n1 (single isomer, unassigned) [Compound 14]
CNc1nc(Nc2cn(C3C[C@]3(C)C#N)nc2C)ncc1C(F)(F)F (single isomer, unassigned) [Compound 5]
CCNc1nc(Nc2cnn(C3C[C@@H]3C#N)c2C)ncc1C(F)(F)F (single isomer, unassigned) [Compound 18]
CCNc1nc(Nc2cn(C3C[C@]3(C)C#N)nc2C2CC2)ncc1C(F)(F)F (single isomer, unassigned) [Compound 4, 2-(3-cyclopropyl-4-((4-(ethylamino)-5-(trifluoromethyl)pyrimidin-2-yl)amino)-1H-pyrazol-1-yl)-1-methylcyclopropanecarbonitrile]
Cc1nn(C2C[C@]2(C)C#N)cc1Nc1ncc(C(F)(F)F)c(NC2(C)CC2)n1 (single isomer, unassigned) [Compound 13]
CCNc1nc(Nc2cn(C3C[C@H]3C#N)nc2C2CC2)ncc1C(F)(F)F (single isomer, unassigned) [Compound 17]
